# Data as given in US11684614B2, “Formulations of hydroxypyridonate actinide/lanthanide decorporation agents” (priority 2017, dated 2023).
# Assay: Repeated-treatment efficacy for removing an intravenous dose of 238Pu (excretion, tissue retention, clinical observations), female and male arms
# Type: in vivo, Swiss-Webster mice
# Conditions: female mice; for ^238Pu percent increase in excretion, Total Excretion / ^238Pu percent increase in excretion, Total Feces / ^238Pu percent increase in excretion, Total Urine: over untreated control group; for ^238Pu percent tissue reduction, GI Tract / ^238Pu percent tissue reduction, Kidney / ^238Pu percent tissue reduction, Liver / ^238Pu percent tissue reduction, Soft Tissue / ^238Pu percent tissue reduction, Total Body / ^238Pu percent tissue reduction, Total Bone: vs untreated control group
# Protocol: The objective of this study was to characterize the efficacy of 3,4,3-L1(1,2-HOPO) at enhancing elimination from an internal plutonium burden in female and male Swiss-Webster mice administered a soluble citrate complex of ^238Pu and treated multiple times, starting at 24 hours after the exposure. Efficacy was evaluated by comparing the tissue contents, urinary and fecal excretions of ^238Pu in treated animals versus untreated animals.
# The medical countermeasure 3,4,3-L1(1,2-HOPO) was administered parenterally (ip) or orally (po) via consecutive injections or gavages (six daily or twelve twice daily) starting at 24 hours post contamination at the following four selected doses: 30 μmol/kg ip, 150 μmol/kg po, 300 μmol/kg po, and 600 μmol/kg po (equivalent to respective approximate human doses range of […], using the accepted conversion system of mouse doses into human equivalent doses—HED—based on body surface area). Oral doses also included the permeability enhancer selected during formulation development work.
# • Challenge isotope: ^238Pu • Challenge dose: 25 nCi (i.e., approximately 0.8 μCi/kg) • Route of contamination: Intravenous (iv) tail-vein • Route of treatment: Intraperitoneal Injection (ip) or Oral (po) • Frequency of treatment: Multiple (once- or twice-daily for 6 days) doses, starting 24 hr postcontamination • Treatment dose calculation: Dose calculations (mg/kg or μmol/kg) for the decorporation agent were based on the individual body weight measured after contamination. • Study Duration: 11 days, in-life
# c. […] Test article and control dose formulations were prepared within 1 day of dose administration, by weighing out the appropriate amount of test article, dispersing in vehicle. For ip solutions, the test article was used alone, while for oral suspensions, a mixture of test article and excipient (90:10, w:w) was used. The pH was adjusted to 7.0-7.4 for ip administration and 5.0-5.5 for oral administration with sterile NaOH. Dose formulations were prepared at room temperature and filter-sterilized. • Storage: 2-8° C.; refrigerated; protected from light. • Characterization: The concentration of each test article formulation was verified by high-performance liquid chromatography-mass spectrometry. • Test Article Handling: Test, reference, and control article formulations were handled with the use of eye protection, gloves, and a protective laboratory coat. • Correct Dose Assurance: The test article was weighed with calibrated balances. The administration of each dose formulation was properly documented, and the amount administered to each animal recorded.
# e. Experimental Procedures (In-Life Evaluations and Euthanasia) • Contamination: Single administration by intravenous (iv) tail-vein injection (0.2 mL injection volume) under isoflurane anesthesia. Three standard 0.2 mL injections were performed into polyethylene bottles and pre-loaded with aliquots of concentrated nitric acid on each injection day. Six female and six male mice were culled for necropsy 1 hr post-contamination and were used as standards. A11 standards were processed and counted together with the final samples to allow verification of the contamination dose. • Dose Administration: Single administration by intraperitoneal injection (ip) or oral gavage (po) under isoflurane anesthesia. • Mortality/Morbidity: Assessed at least once daily. • Clinical Observations: Recorded once daily (4 hr post-dose on day of treatment), or more often as clinical signs warranted. […]
# [1] = 30 μmol/kg, IP, 11-day necropsy
# [2] = 150 μmol/kg, 2 doses PO, 7-day necropsy
# [3] = 300 μmol/kg, 1 dose PO, 7-day necropsy
# [4] = 300 μmol/kg, 1 dose PO, 11-day necropsy
# [5] = 300 μmol/kg, 1 doses PO, 7-day necropsy
smiles,measurement,setting,value
O=C(NCCCN(CCCCN(CCCNC(=O)c1cccc(=O)n1O)C(=O)c1cccc(=O)n1O)C(=O)c1cccc(=O)n1O)c1cccc(=O)n1O [Formulation 343],"^238Pu excretion, Total Excretion, Avg",[1],79.37 percent recovered dose
same,"^238Pu excretion, Total Feces, Avg",[1],41.80 percent recovered dose
same,"^238Pu excretion, Total Urine, Avg",[1],37.57 percent recovered dose
same,"^238Pu retention, GI Tract, Avg",[1],0.59 percent recovered dose
same,"^238Pu retention, Kidney, Avg",[1],0.11 percent recovered dose
same,"^238Pu retention, Liver, Avg",[1],2.79 percent recovered dose
same,"^238Pu retention, Soft Tissue, Avg",[1],1.40 percent recovered dose
same,"^238Pu retention, Total Body, Avg",[1],20.63 percent recovered dose
same,"^238Pu retention, Total Bone, Avg",[1],15.74 percent recovered dose
same,"^238Pu percent increase in excretion, Total Excretion",[1],157.74%
same,"^238Pu percent increase in excretion, Total Feces",[1],146.77%
same,"^238Pu percent increase in excretion, Total Urine",[1],172.05%
same,"^238Pu percent tissue reduction, GI Tract",[1],55.96%
same,"^238Pu percent tissue reduction, Kidney",[1],58.43%
same,"^238Pu percent tissue reduction, Liver",[1],76.81%
same,"^238Pu percent tissue reduction, Soft Tissue",[1],50.90%
same,"^238Pu percent tissue reduction, Total Body",[1],58.48%
same,"^238Pu percent tissue reduction, Total Bone",[1],52.58%
same,"^238Pu excretion, Total Excretion, Avg",[2],62.18 percent recovered dose
same,"^238Pu excretion, Total Feces, Avg",[2],33.16 percent recovered dose
same,"^238Pu excretion, Total Urine, Avg",[2],29.02 percent recovered dose
same,"^238Pu retention, GI Tract, Avg",[2],1.20 percent recovered dose
same,"^238Pu retention, Kidney, Avg",[2],0.23 percent recovered dose
same,"^238Pu retention, Liver, Avg",[2],12.83 percent recovered dose
same,"^238Pu retention, Soft Tissue, Avg",[2],1.64 percent recovered dose
same,"^238Pu retention, Total Body, Avg",[2],37.82 percent recovered dose
same,"^238Pu retention, Total Bone, Avg",[2],21.92 percent recovered dose
same,"^238Pu percent increase in excretion, Total Excretion",[2],129.85%
same,"^238Pu percent increase in excretion, Total Feces",[2],146.48%
same,"^238Pu percent increase in excretion, Total Urine",[2],114.93%
same,"^238Pu percent tissue reduction, GI Tract",[2],35.66%
same,"^238Pu percent tissue reduction, Kidney",[2],43.29%
same,"^238Pu percent tissue reduction, Liver",[2],31.41%
same,"^238Pu percent tissue reduction, Soft Tissue",[2],19.55%
same,"^238Pu percent tissue reduction, Total Body",[2],27.43%
same,"^238Pu percent tissue reduction, Total Bone",[2],24.67%
same,"^238Pu excretion, Total Excretion, Avg",[3],63.26 percent recovered dose
same,"^238Pu excretion, Total Feces, Avg",[3],34.34 percent recovered dose
same,"^238Pu excretion, Total Urine, Avg",[3],28.92 percent recovered dose
same,"^238Pu retention, GI Tract, Avg",[3],1.20 percent recovered dose
same,"^238Pu retention, Kidney, Avg",[3],0.26 percent recovered dose
same,"^238Pu retention, Liver, Avg",[3],10.22 percent recovered dose
same,"^238Pu retention, Soft Tissue, Avg",[3],1.74 percent recovered dose
same,"^238Pu retention, Total Body, Avg",[3],36.74 percent recovered dose
same,"^238Pu retention, Total Bone, Avg",[3],23.31 percent recovered dose
same,"^238Pu percent increase in excretion, Total Excretion",[3],142.38%
same,"^238Pu percent increase in excretion, Total Feces",[3],197.06%
same,"^238Pu percent increase in excretion, Total Urine",[3],107.09%
same,"^238Pu retention, GI Tract, Avg",[4],1.02 percent recovered dose
same,"^238Pu retention, Kidney, Avg",[4],0.17 percent recovered dose
same,"^238Pu retention, Liver, Avg",[4],6.02 percent recovered dose
same,"^238Pu retention, Soft Tissue, Avg",[4],2.06 percent recovered dose
same,"^238Pu retention, Total Body, Avg",[4],28.11 percent recovered dose
same,"^238Pu retention, Total Bone, Avg",[4],18.85 percent recovered dose
same,"^238Pu percent tissue reduction, GI Tract",[4],25.61%
same,"^238Pu percent tissue reduction, Kidney",[4],37.82%
same,"^238Pu percent tissue reduction, Liver",[4],55.06%
same,"^238Pu percent tissue reduction, Soft Tissue",[4],22.98%
same,"^238Pu percent tissue reduction, Total Body",[4],42.51%
same,"^238Pu percent tissue reduction, Total Bone",[4],39.58%
same,"^238Pu percent tissue reduction, GI Tract",[5],11.06%
same,"^238Pu percent tissue reduction, Kidney",[5],20.17%
same,"^238Pu percent tissue reduction, Liver",[5],38.39%
